Article PMC4666645 (PLoS Pathogens, 2015)
Several values for one entry are separate records, joined by “and”; a condition that tells them apart may be missing. Identical values can stand only once. Counter-ions that a name gives are not always drawn. Like-named read-outs stand apart in the source and are kept apart here.

How the values were obtained:
[1] = system: C. elegans expressing Hco-26/27; assay: Thrashing assay on transgenic C. elegans expressing Hco-26/27; assay type: in vivo, Caenorhabditis elegans
Description: Taking advantage of the absence of acr-26 and acr-27 homologs in the C. elegans genome, we used wild type N2 worms to express these two parasitic nematode AChR subunits. […] For Peq-ACR-26 and Peq-ACR-27, even though the localization of these subunits in Parascaris equorum remains to be investigated in more detail, we also used myo3 as a promoter in order to compare the functional impact of Hco-26/27 and Peq-26/27 on both motility and drug sensitivity in transgenic C. elegans.
Worms were maintained at 20°C on nematode growth medium (NGM) plates and fed on a bacterial lawn (Escherichia coli OP50). Bristol N2 was used as a reference wild-type C. elegans strain. Dose-response assays were performed on gravid adults placed in wells of a 96-well plate containing M9 salt solution (3 g/L KH2PO4, 6 g/L Na2HPO4, 5 g/L NaCl, and 1 mM MgSO4 with BSA at 0.1%) with varying anthelmintic concentrations. After 10 min, worm thrashing was counted for 1 min. A thrash was defined as a change in the direction of bending at the mid-body to return to the initial position. For each drug concentration, 30 worms were tested. Hco-acr-26, Hco-acr-27, Peq-acr-26 and Peq-acr-27 coding sequences were sub-cloned into the pPD96.52 (Addgene) vector containing the muscle promoter Pmyo3. Primer sequences containing the suitable restriction sites are listed in S3 Table. Extrachromosomal transgenic strains of C. elegans were obtained by micro-injecting DNA into the gonads of young adult hermaphrodite worms as described. N2 worms were injected with different mixes containing Pmyo3::Hco-acr-26; Pmyo3::Hco-acr-27; Pmyo3::Peq-acr-26; Pmyo3::Peq-acr-27 alone or in combination (Pmyo3::Hco-acr-26 + Pmyo3::Hco-acr-27 or Pmyo3::Peq-acr-26 + Pmyo3::Peq-acr-27) with a final concentration of 40 ng/μl for each plasmid. The plasmid pPD118.33_Pmyo2::gfp (Addgene) was co-injected at 25 ng/μl as a transformation marker. […] Thrashes produced by each worm during 1 minute were counted after a 10 minutes equilibration period. After drug application, thrashes were counted after 10, 20 and 30 minutes of exposure. […]

[2] = target: Hco-26/27 receptor (Haemonchus contortus, UniProt A9XX30+S4VAP0); assay: cell-based
Sequence of Hco-26/27 receptor (A9XX30 entry or part of it): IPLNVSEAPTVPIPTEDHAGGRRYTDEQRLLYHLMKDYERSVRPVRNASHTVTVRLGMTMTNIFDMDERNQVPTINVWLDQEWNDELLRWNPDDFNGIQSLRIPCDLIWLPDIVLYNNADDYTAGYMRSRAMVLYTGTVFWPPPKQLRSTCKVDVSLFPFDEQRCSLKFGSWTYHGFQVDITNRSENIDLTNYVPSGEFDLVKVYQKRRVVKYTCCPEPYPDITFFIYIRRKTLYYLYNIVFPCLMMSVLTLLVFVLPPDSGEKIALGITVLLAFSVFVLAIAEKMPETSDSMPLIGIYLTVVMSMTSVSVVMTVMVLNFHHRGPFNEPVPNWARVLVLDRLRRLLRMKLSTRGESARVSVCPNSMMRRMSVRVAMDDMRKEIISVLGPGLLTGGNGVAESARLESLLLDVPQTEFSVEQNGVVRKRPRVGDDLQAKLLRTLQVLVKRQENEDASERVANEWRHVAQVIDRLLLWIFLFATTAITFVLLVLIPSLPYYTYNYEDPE
Sequence of Hco-26/27 receptor (S4VAP0 entry or part of it): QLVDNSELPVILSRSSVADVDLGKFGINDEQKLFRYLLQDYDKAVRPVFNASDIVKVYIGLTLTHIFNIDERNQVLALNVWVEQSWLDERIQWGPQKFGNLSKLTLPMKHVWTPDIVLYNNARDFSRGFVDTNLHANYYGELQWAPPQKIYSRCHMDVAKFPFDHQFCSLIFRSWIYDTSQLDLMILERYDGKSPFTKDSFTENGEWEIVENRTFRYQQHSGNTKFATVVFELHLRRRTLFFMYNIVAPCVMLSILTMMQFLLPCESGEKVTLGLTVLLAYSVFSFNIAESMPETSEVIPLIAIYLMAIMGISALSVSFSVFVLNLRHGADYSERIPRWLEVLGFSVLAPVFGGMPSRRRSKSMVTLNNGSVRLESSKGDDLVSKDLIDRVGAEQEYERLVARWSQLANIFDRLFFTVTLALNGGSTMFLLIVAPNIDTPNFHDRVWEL
Description: In order to investigate if the overlapping expression contributed to functional receptors, we co-expressed Hco-ACR-26 and Hco-ACR-27 in Xenopus laevis oocytes. We have previously reported that the functional expression of nematode muscle AChRs in Xenopus oocytes requires the addition of ancillary proteins. Therefore, cRNAs encoding the subunits Hco-ACR-26 and Hco-ACR-27, in combination with three ancillary proteins (Hco-ric-3.1, Hco-unc-74 and Hco-unc-50) were co-injected into Xenopus oocytes. […] Subsequently, different cRNA combinations were injected into Xenopus oocytes in order to determine the minimal subunit combination leading to the expression of a functional receptor and verify the ancillary factor requirement.
The subunit stoichiometry has been previously reported to impact the pharmacological properties of some nematode AChRs expressed in Xenopus oocytes.
(§1) H. contortus and P. equorum acr-26 and acr-27 cDNAs were PCR-amplified using primers containing a restriction site in order to be sub-cloned into the expression vector pTB207 that is suitable for in vitro transcription. Primers are listed in S3 Table. The resulting plasmids were linearized with the NheI restriction enzyme (Fermantas) and used as templates for cRNA synthesis using the T7 mMessage mMachine kit (Ambion). Xenopus laevis ovaries were obtained from the University of Rennes, France (CRB Xenope) and defolliculated using 2 mg/ml collagenase type II (Gibco) in the incubation solution containing: 100 mM NaCl, 2 mM KCl, 1.8 mM CaCl2.2H2O, 1 mM MgCl2.6H2O, 5 mM HEPES, 2.5 mM C3H3NaO3, pH 7.5, supplemented with penicillin 100 U/mL and streptomycin 100 μg/mL). The oocytes were injected in the animal pole with a total volume of 36 nL of cRNA mix containing 50 ng/μL of each cRNA in RNase-free water using the Drummond nanoject II microinjector. Microinjected oocytes were kept at 20°C in incubation medium for 4 days to allow the receptors expression. Two-electrode voltage-clamp recordings were carried out using an Oocyte Clamp OC-725C amplifier (Warner instrument) in oocytes being voltage-clamped at -60mV. All agonist preparations were prepared with recording buffer (100 mM NaCl, 2.5 mM KCl, 1 mM CaCl2.2H2O, 5 mM HEPES, pH 7.3). Currents were recorded and analyzed using the pCLAMP 10.4 package (Molecular Devices).

[3] = target: Peq-26/27 receptor (Parascaris equorum, UniProt A0A0U2ES47+A0A0U2ES58); assay: cell-based; settings: for Emax at 100 µM: read-out: Current elicited, % of ACh response
Sequence of Peq-26/27 receptor (A0A0U2ES58 entry or part of it): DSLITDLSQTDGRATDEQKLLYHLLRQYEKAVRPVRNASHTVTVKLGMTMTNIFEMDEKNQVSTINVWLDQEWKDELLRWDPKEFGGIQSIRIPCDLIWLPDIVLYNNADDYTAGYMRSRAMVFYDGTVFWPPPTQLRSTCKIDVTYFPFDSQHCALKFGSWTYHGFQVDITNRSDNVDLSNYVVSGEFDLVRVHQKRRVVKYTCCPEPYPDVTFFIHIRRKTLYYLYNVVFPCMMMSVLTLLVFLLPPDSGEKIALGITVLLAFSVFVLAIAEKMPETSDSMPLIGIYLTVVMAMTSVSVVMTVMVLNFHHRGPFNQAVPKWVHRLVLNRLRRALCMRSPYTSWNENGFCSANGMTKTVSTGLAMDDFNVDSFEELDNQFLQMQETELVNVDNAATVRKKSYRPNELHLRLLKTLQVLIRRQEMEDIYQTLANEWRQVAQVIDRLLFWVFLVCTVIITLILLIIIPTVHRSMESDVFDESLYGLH
Sequence of Peq-26/27 receptor (A0A0U2ES47 entry or part of it): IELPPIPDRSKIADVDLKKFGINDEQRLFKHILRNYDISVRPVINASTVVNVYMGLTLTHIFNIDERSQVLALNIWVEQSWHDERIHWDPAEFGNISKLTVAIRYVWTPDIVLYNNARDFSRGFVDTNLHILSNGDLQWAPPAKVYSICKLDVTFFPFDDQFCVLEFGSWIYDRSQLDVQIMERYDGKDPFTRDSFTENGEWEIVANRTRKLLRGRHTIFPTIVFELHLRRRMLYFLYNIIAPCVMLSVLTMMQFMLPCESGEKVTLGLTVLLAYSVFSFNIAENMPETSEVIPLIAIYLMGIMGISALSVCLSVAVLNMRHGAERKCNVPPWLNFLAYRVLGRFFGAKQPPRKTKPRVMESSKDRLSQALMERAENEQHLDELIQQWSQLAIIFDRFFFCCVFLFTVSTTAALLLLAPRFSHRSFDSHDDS
Procedure: In order to determine if ACR-26 and ACR-27 subunits from other parasitic nematodes species could also form functional receptors when expressed in Xenopus oocyte, Peq-acr-26 and Peq-acr-27 cRNAs from the distantly related P. equorum (Clade III) were co-injected in combination with Hco-ric-3.1, Hco-unc-74 and Hco-unc-50 cRNAs. Four days after injection, we observed robust expression of a functional AChR responding to 100 μM ACh (Fig 6B). […] This novel heteropentameric AChR was named Peq-26/27.
as §1

[4] = system: C. elegans N2; assay: Dose-response thrashing assay on wild-type C. elegans N2; assay type: in vivo, Caenorhabditis elegans; settings: for Minimal drug concentration causing significant reduction in wild-type motility: 10 min exposure
Procedure: Worms were maintained at 20°C on nematode growth medium (NGM) plates and fed on a bacterial lawn (Escherichia coli OP50). Bristol N2 was used as a reference wild-type C. elegans strain. Dose-response assays were performed on gravid adults placed in wells of a 96-well plate containing M9 salt solution (3 g/L KH2PO4, 6 g/L Na2HPO4, 5 g/L NaCl, and 1 mM MgSO4 with BSA at 0.1%) with varying anthelmintic concentrations. After 10 min, worm thrashing was counted for 1 min. A thrash was defined as a change in the direction of bending at the mid-body to return to the initial position. For each drug concentration, 30 worms were tested. Hco-acr-26, Hco-acr-27, Peq-acr-26 and Peq-acr-27 coding sequences were sub-cloned into the pPD96.52 (Addgene) vector containing the muscle promoter Pmyo3. Primer sequences containing the suitable restriction sites are listed in S3 Table. Extrachromosomal transgenic strains of C. elegans were obtained by micro-injecting DNA into the gonads of young adult hermaphrodite worms as described. N2 worms were injected with different mixes containing Pmyo3::Hco-acr-26; Pmyo3::Hco-acr-27; Pmyo3::Peq-acr-26; Pmyo3::Peq-acr-27 alone or in combination (Pmyo3::Hco-acr-26 + Pmyo3::Hco-acr-27 or Pmyo3::Peq-acr-26 + Pmyo3::Peq-acr-27) with a final concentration of 40 ng/μl for each plasmid. The plasmid pPD118.33_Pmyo2::gfp (Addgene) was co-injected at 25 ng/μl as a transformation marker. For each mixes, at least two independent lines were generated. For each line, thrashing assays were carried on at least 12 F1-worms carrying the selection marker. L4 larvae from N2 and transformed worms were transferred one day before the thrashing assay on NGM plate. One young adult was placed in each well of a 12-well plate containing M9 salt buffer. Thrashes produced by each worm during 1 minute were counted after a 10 minutes equilibration period. After drug application, thrashes were counted after 10, 20 and 30 minutes of exposure. Experimental data are shown as mean ± SEM. Statistical comparisons were done using the paired or unpaired Student’s t test or one-way ANOVA with Tukey’s multiple comparison test. A level of p<0.05 was considered significant. For each line, expression of the introduced acr-26 and/or acr-27 coding sequences from H. contortus or P. equorum was confirmed by RT-PCR experiments performed on 12 pooled worms. A partial sequence corresponding to the C. elegans endogenous AChR unc-38 transcript was amplified with primers designed on two independent exons in order to control the cDNA template quality. Primer sequences are listed in S3 Table.
Supplementary file ppat.1005267.s004.tif: S4 Fig Thrashing assays performed on C. elegans (N2) with different anthelmintic molecules. […] Thrashes of gravid wild-type adults were counted for one minute after 10 minutes of drug exposure. […] Results are expressed as mean ± SEM derived from three independent sets of experiments. For each treatment, 30 worms were included in the analysis. […] Statistical analyses were performed using a One-Way Anova with Tukey’s Multiple Comparison Test with **p<0.01, ***p<0.001. (TIF) Click here for additional data file.

[5] = read-out: Relative maximal current (Imax) normalized to 100 μM acetylcholine, cRNA ratio 1:1 26/27, 100 μM agonist
[6] = read-out: Relative maximal current (Imax) normalized to 100 μM acetylcholine, cRNA ratio 1:5 26/27, 100 μM agonist
[7] = read-out: Relative maximal current (Imax) normalized to 100 μM acetylcholine, cRNA ratio 5:1 26/27, 100 μM agonist
[8] = Caenorhabditis elegans, 10 min, 10 min drug exposure, gravid adults, read-out: IC50 (reduction of thrashing)
[9] = read-out: Current elicited, % of ACh response, 100 μM agonist, normalized to 100 μM ACh current, equal subunit ratio

## c1ccc([C@H]2CN3CCSC3=N2)cc1 [Lev, (-)-tetramisole hydrochloride]
[1]; 5 μM Lev
  Change in sensitivity versus N2: no significant change
[2]; 100 μM agonist, normalized to 100 μM ACh current, equal subunit ratio
  Current elicited, % of ACh response: insensitive
[2]; [5]
  Emax at 100 µM: 3.46 ± 1.44%
[2]; [6]
  Emax at 100 µM: 4.18 ± 2.89%
[2]; [7]
  Emax at 100 µM: 1.77 ± 1.77%
[3]; EC50, responses normalized to 1 mM ACh
  EC50: 16.7 µM and 17 µM
[3]
  Emax at 100 µM: 24.5 ± 2.4%
[4]
  Minimal drug concentration causing significant reduction in wild-type motility: 5 µM
[4]; [8]
  IC50: 7 ± 1.1 µM

## Cc1ccsc1/C=C/C1=NCCCN1C [Mor, morantel]
[1]; 40 μM Mor, 10 minutes exposure
  Reduction of thrashing motility: 93.3%
[2]
  EC50: 29 ± 1.3 µM
[2]; 100 μM, p<0.001
  Imax reduction with fivefold increase of Hco-ACR-27 versus equal subunit ratios: 2 fold
[2]; [9]
  Emax at 100 µM: 249 ± 11.5%
[2]; [5]
  Emax at 100 µM: 249 ± 11.5%
[2]; [6]
  Emax at 100 µM: 137 ± 19.7%
[2]; [7]
  Emax at 100 µM: 265 ± 29.1%
[3]
  Emax at 100 µM: 74.5 ± 4.9%
[4]
  Minimal drug concentration causing significant reduction in wild-type motility: 40 µM
[4]; Caenorhabditis elegans, 10 min, read-out: IC50 (reduction of thrashing), 10 min drug exposure, gravid adults
  IC50: 44 ± 1.03 µM
[4]; read-out: IC50 (reduction of thrashing), 10 min drug exposure, gravid adults
  IC50: 44.1 ± 1 µM

## CN1CCCN=C1/C=C/c1cccs1 [Pyr, pyrantel]
[1]; 50 μM Pyr, 10 minutes of drug exposure
  Percentage reduction of thrashes min^-1: 65.4%
[2]
  EC50: 6.8 ± 1.3 µM
[2]; [9]
  Emax at 100 µM: 81 ± 6.21%
[2]; [5]
  Emax at 100 µM: 81 ± 6.21%
[2]; [6]
  Emax at 100 µM: 83.1 ± 17.9%
[2]; [7]
  Emax at 100 µM: 84.1 ± 8.54%
[3]
  Emax at 100 µM: 21.8 ± 2.1%
[4]
  Minimal drug concentration causing significant reduction in wild-type motility: 50 µM
[4]; [8]
  IC50: 107 ± 1.2 µM
